Assay results: ChEMBL document CHEMBL6127018, “Molecular design and evaluation of aza-polycyclic carbamoyl pyridones as HIV-1 integrase strand transfer inhibitors” (Bioorg Med Chem Lett, 2024)

Columns and labels:
[1] = target: Human immunodeficiency virus type 1 integrase (Human immunodeficiency virus 1, UniProt Q7ZJM1); test: Inhibition of recombinant HIV-1 integrase by microtiter plate integration assay
[2] = system: Human immunodeficiency virus 1; test: Antiviral activity against HIV-1 infected in human MT4 cells; type: functional, organism-based; details: Human immunodeficiency virus 1, MT4
[3] = Cytotoxicity against human MT4 cells; type: toxicity, cell-based
[4] = Selectivity ratio of PAEC50 for antiviral activity against HIV-1 infected in human MT4 cells in presence of human serum albumin to EC50 for antiviral activity against HIV-1 infected in human MT4 cells; type: functional, Human immunodeficiency virus 1
[5] = system: Human immunodeficiency virus 1; test: Antiviral activity against HIV-1 harboring raltegravir resistant Q148H mutant infected in human HeLa-CD4 cells assessed as fold change; type: functional
[6] = Half-life in rat at 1 mg/kg, iv; type: ADME, organism-based; details: in vivo
[7] = Half-life in cynomolgus monkey at 1 mg/kg, iv; type: ADME, organism-based, Macaca fascicularis; details: in vivo
[8] = Cmax in rat at 5 mg/kg, po or 1 mg/kg, iv; type: ADME, organism-based; details: in vivo
[9] = Cmax in cynomolgus monkey at 5 mg/kg, po or 1 mg/kg, iv; type: ADME, organism-based, Macaca fascicularis; details: in vivo
[10] = Oral bioavailability in rat at 5 mg/kg; type: ADME, organism-based; details: in vivo
[11] = Oral bioavailability in cynomolgus monkey at 5 mg/kg; type: ADME, organism-based, Macaca fascicularis; details: in vivo
[12] = Free fraction in rat serum at 5 mg/kg, po or 1 mg/kg, iv; type: ADME, organism-based
[13] = Free fraction in cynomolgus monkey serum at 5 mg/kg, po or 1 mg/kg, iv; type: ADME, organism-based, Macaca fascicularis

Sequence of Human immunodeficiency virus type 1 integrase (Q7ZJM1 whole entry): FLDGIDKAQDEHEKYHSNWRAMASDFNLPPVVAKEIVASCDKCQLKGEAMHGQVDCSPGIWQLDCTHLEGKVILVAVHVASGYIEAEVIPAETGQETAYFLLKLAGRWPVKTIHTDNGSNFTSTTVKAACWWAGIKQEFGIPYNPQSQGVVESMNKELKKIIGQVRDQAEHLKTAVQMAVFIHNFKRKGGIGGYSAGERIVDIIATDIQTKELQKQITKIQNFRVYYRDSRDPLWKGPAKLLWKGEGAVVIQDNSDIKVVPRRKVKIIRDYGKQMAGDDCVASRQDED

Structure (SMILES) | IC50 [1] | EC50 [2] | CC50 [3] | Selectivity ratio [4] | fold change (FC) [5] | half-life [6] | half-life [7] | Cmax [8] | Cmax [9] | bioavailability [10] | bioavailability [11] | fraction unbound [12] | fraction unbound [13]
COCCN1CN(Cc2ccccc2)n2cc(C(=O)NCc3ccc(F)cc3F)c(=O)c(O)c2C1=O | 3.5 nM | 1.9 nM | 5000 nM | 17 | 1.1 | – | – | – | – | – | – | – | –
CN1C(=O)c2c(O)c(=O)c(C(=O)NCc3ccc(F)cc3F)cn2CN1CCO | 4.7 nM | 20 nM | > 50000 nM | 3.1 | – | – | – | – | – | – | – | – | –
C[C@@H]1CCO[C@H]2Cn3cc(C(=O)NCc4ccc(F)cc4F)c(=O)c(O)c3C(=O)N12 [DOLUTEGRAVIR] | – | 2.1 nM | 15000 nM | – | 0.74 | – | – | – | – | – | – | – | –
CCN1Cn2cc(C(=O)NCc3ccc(F)cc3F)c(=O)c(O)c2C(=O)N1 | 4.5 nM | 11 nM | > 50000 nM | 44 | – | – | – | – | – | – | – | – | –
CN1Cn2cc(C(=O)NCc3ccc(F)cc3F)c(=O)c(O)c2C(=O)N1CCO | 4.9 nM | 15 nM | > 50000 nM | 18 | – | – | – | – | – | – | – | – | –
COCCN1CN(C)n2cc(C(=O)NCc3ccc(F)cc3F)c(=O)c([O-])c2C1=O.[Na+] | – | – | – | – | – | 14.3 h | 4.8 h | 18000 ng/mL | 1700 ng/mL | 46% | 31% | 0.0011 | 0.0072
O=C(NCc1ccc(F)cc1)c1cn2c(c(O)c1=O)C(=O)N1CCCN1C2 | 5.2 nM | 3.6 nM | 41000 nM | 9.1 | – | – | – | – | – | – | – | – | –
CC(C)N1NCn2cc(C(=O)NCc3ccc(F)cc3F)c(=O)c(O)c2C1=O | 4.3 nM | 1.7 nM | 15000 nM | 34 | – | – | – | – | – | – | – | – | –
CN1Cn2cc(C(=O)NCc3ccc(F)cc3F)c(=O)c(O)c2C(=O)N1 | 4.5 nM | 29 nM | > 50000 nM | 8.4 | – | – | – | – | – | – | – | – | –
C[C@@H]1CCO[C@H]2Cn3cc(C(=O)NCc4ccc(F)cc4F)c(=O)c([O-])c3C(=O)N12.[Na+] [DOLUTEGRAVIR SODIUM] | – | – | – | – | – | 6.2 h | 6 h | 10700 ng/mL | 817 ng/mL | 33% | – | 0.0008 | 0.0058
COCCN1CN(Cc2cccnc2)n2cc(C(=O)NCc3ccc(F)cc3F)c(=O)c(O)c2C1=O | 6.9 nM | 3.2 nM | 8100 nM | 3.3 | 1.4 | – | – | – | – | – | – | – | –
CC(=O)NCCN1Cn2cc(C(=O)NCc3ccc(F)cc3F)c(=O)c(O)c2C(=O)N1C | 9 nM | 120 nM | > 50000 nM | 2.8 | – | – | – | – | – | – | – | – | –
CN(C)CCN1CN(C)n2cc(C(=O)NCc3ccc(F)cc3F)c(=O)c(O)c2C1=O | 11 nM | 4.8 nM | 12000 nM | 2.2 | 5 | – | – | – | – | – | – | – | –
CN1Cn2cc(C(=O)NCc3ccc(F)cc3F)c(=O)c([O-])c2C(=O)N1C.[Na+] | 3.7 nM | 2.4 nM | > 50000 nM | 52 | – | – | – | – | – | – | – | – | –
CCN(CC)CCN1CN(CCOC)C(=O)c2c(O)c(=O)c(C(=O)NCc3ccc(F)cc3F)cn21 | 22 nM | 13 nM | 11000 nM | 1.4 | 2.3 | – | – | – | – | – | – | – | –
COCCN1CN(CCO)n2cc(C(=O)NCc3ccc(F)cc3F)c(=O)c(O)c2C1=O | 5.4 nM | 9.4 nM | 28000 nM | 13 | 0.7 | – | – | – | – | – | – | – | –
CN1CN(C[C@@H]2CCCO2)C(=O)c2c(O)c(=O)c(C(=O)NCc3ccc(F)cc3F)cn21 | 4.7 nM | 1.3 nM | 14000 nM | 13 | 1 | – | – | – | – | – | – | – | –
O=C(NCc1ccc(F)cc1F)c1cn2c(c([O-])c1=O)C(=O)N1CCCN1C2.[Na+] | – | – | – | – | – | 27.5 h | 3.7 h | 6390 ng/mL | 345 ng/mL | 13% | 6.4% | 0.0002 | 0.0052
COCCN1CN(CC(C)C)n2cc(C(=O)NCc3ccc(F)cc3F)c(=O)c(O)c2C1=O | 6.1 nM | 3.5 nM | 13000 nM | 620 | 0.6 | – | – | – | – | – | – | – | –
O=C(NCc1ccc(F)cc1F)c1cn2c(c(O)c1=O)C(=O)N1CCCCCN1C2 | 6.2 nM | 3.5 nM | 17000 nM | 400 | – | – | – | – | – | – | – | – | –

Structure (SMILES) | IC50 [1] | EC50 [2] | CC50 [3] | Selectivity ratio [4] | fold change (FC) [5] | half-life [6] | half-life [7] | Cmax [8] | Cmax [9] | bioavailability [10] | bioavailability [11] | fraction unbound [12] | fraction unbound [13]
COCCN1CN(CC(=O)N(C)C)n2cc(C(=O)NCc3ccc(F)cc3F)c(=O)c(O)c2C1=O | 5.1 nM | 15 nM | 38000 nM | 5 | 0.9 | – | – | – | – | – | – | – | –
COCCN1Cn2cc(C(=O)NCc3ccc(F)cc3F)c(=O)c(O)c2C(=O)N1C | 4.4 nM | 1.6 nM | 15000 nM | 14 | 2.3 | – | – | – | – | – | – | – | –
COCCN1CN(C(c2ccccc2)c2ccccc2)n2cc(C(=O)NCc3ccc(F)cc3F)c(=O)c(O)c2C1=O | – | 57000 nM | – | – | – | – | – | – | – | – | – | – | –
COCCN1C(=O)c2c(O)c(=O)c(C(=O)NCc3ccc(F)cc3F)cn2CN1C | 4.5 nM | 1.4 nM | 18000 nM | 24 | 1.7 | – | – | – | – | – | – | – | –
CN1CN(CC2CC2)C(=O)c2c(O)c(=O)c(C(=O)NCc3ccc(F)cc3F)cn21 | 4 nM | 1.3 nM | 13000 nM | 360 | 0.85 | – | – | – | – | – | – | – | –
O=C(NCc1ccc(F)cc1F)c1cn2c(c(O)c1=O)C(=O)N1CCCN1C2 | 3.4 nM | 2.2 nM | > 50000 nM | 12 | – | – | – | – | – | – | – | – | –
COCCN1CN(C)n2cc(C(=O)NCc3ccc(F)cc3F)c(=O)c(O)c2C1=O | 4.8 nM | 0.83 nM | 13000 nM | 18 | 0.81 | – | – | – | – | – | – | – | –
CC(C)N1CN(C)n2cc(C(=O)NCc3ccc(F)cc3F)c(=O)c(O)c2C1=O | 5.3 nM | 1.3 nM | 3900 nM | 230 | 0.64 | – | – | – | – | – | – | – | –
CCN1CN(CCOC)C(=O)c2c(O)c(=O)c(C(=O)NCc3ccc(F)cc3F)cn21 | 4.9 nM | 1.3 nM | 8500 nM | 110 | 0.73 | – | – | – | – | – | – | – | –
CN1CN(C2CC2)C(=O)c2c(O)c(=O)c(C(=O)NCc3ccc(F)cc3F)cn21 | 4.7 nM | 2 nM | 12000 nM | 1000 | 1.5 | – | – | – | – | – | – | – | –
COCCN1CN(Cc2ccccn2)n2cc(C(=O)NCc3ccc(F)cc3F)c(=O)c(O)c2C1=O | 9.1 nM | 2.4 nM | 7000 nM | 4.7 | 1.2 | – | – | – | – | – | – | – | –
CN1NCn2cc(C(=O)NCc3ccc(F)cc3F)c(=O)c(O)c2C1=O | 4.8 nM | 3.9 nM | 34000 nM | 12 | – | – | – | – | – | – | – | – | –
COCCN1C(=O)c2c([O-])c(=O)c(C(=O)NCc3ccc(F)cc3F)cn2CN1C.[Na+] | – | – | – | – | – | 21.9 h | 3.1 h | 9330 ng/mL | 385 ng/mL | 21% | 6.1% | 0.0014 | 0.0118
CN1CN(Cc2ccc(F)cc2)C(=O)c2c(O)c(=O)c(C(=O)NCc3ccc(F)cc3F)cn21 | 4.5 nM | 1.7 nM | > 50000 nM | 25 | 0.51 | – | – | – | – | – | – | – | –
COCCCN1CN(C)n2cc(C(=O)NCc3ccc(F)cc3F)c(=O)c(O)c2C1=O | 5.6 nM | 1.3 nM | 18000 nM | 11 | 0.93 | – | – | – | – | – | – | – | –
CN1CN(Cc2cccs2)C(=O)c2c(O)c(=O)c(C(=O)NCc3ccc(F)cc3F)cn21 | 4.5 nM | 1.7 nM | > 50000 nM | 96 | 0.72 | – | – | – | – | – | – | – | –
O=C(NCc1ccc(F)cc1)c1cn2c(c(O)c1=O)C(=O)N1CCCCN1C2 | 4.5 nM | 1.8 nM | 23000 nM | 215 | – | – | – | – | – | – | – | – | –
CN1CN(C[C@H]2CCCO2)C(=O)c2c(O)c(=O)c(C(=O)NCc3ccc(F)cc3F)cn21 | 4.2 nM | 1.4 nM | 9800 nM | 23 | 1.5 | – | – | – | – | – | – | – | –
CN1CN(Cc2ccco2)C(=O)c2c(O)c(=O)c(C(=O)NCc3ccc(F)cc3F)cn21 | 5.7 nM | 1.5 nM | > 50000 nM | 89 | 0.77 | – | – | – | – | – | – | – | –
O=C(NCc1ccc(F)cc1F)c1cn2c(c(O)c1=O)C(=O)N1CCOCCN1C2 | 8.7 nM | 4.6 nM | 32000 nM | 20 | – | – | – | – | – | – | – | – | –
